Measured values reported in ChEMBL document CHEMBL4825690, “Synthesis and biological evaluation of chalcone-polyamine conjugates as novel vectorized agents in colorectal and prostate cancer chemotherapy” (Eur J Med Chem, 2021).

Experiments:
Format in all cases: functional, cell-based
DU-145 = assay: Antiproliferative activity against human DU145 cells assessed as reduction in cell viability incubated for 48 hr by MTT assay; conditions: DU-145, 48 h
PC-3 = assay: Antiproliferative activity against human PC3 cells assessed as reduction in cell viability incubated for 48 hr by MTT assay; conditions: PC-3, 48 h
HT-29 = assay: Antiproliferative activity against human HT29 cells assessed as reduction in cell viability incubated for 48 hr by MTT assay; conditions: HT-29, 48 h
HCT-116 = assay: Antiproliferative activity against human HCT116 cells assessed as reduction in cell viability incubated for 48 hr by MTT assay; conditions: HCT-116, 48 h

SMILES | IC50 (DU-145) [µM] | IC50 (PC-3) [µM] | IC50 (HT-29) [µM] | IC50 (HCT-116) [µM]
COc1cc(C(=O)/C=C/c2ccc(OCCCNCCCCN)cc2)cc(OC)c1OC | 8.4 | 20.1 | 20.2 | 12.4
COc1cc(C(=O)/C=C/c2ccc(OCCCNCCCNCCCCNCCCN)cc2)cc(OC)c1OC | 10.8 | 14 | > 40 | 11.8
COc1cc(C(=O)/C=C/c2ccc(OCCCNCCCN)cc2)cc(OC)c1OC | 10.2 | 20.4 | 13.7 | 21.9
COc1cc(C(=O)/C=C/c2ccc(OCCCNCCCCNCCCN)cc2)cc(OC)c1OC | 20.6 | 32.6 | 31.8 | 20.3
